# Literature values as cited in US20230277510A1, “SIROLIMUS MICROSPHERES AND METHOD OF MAKING SIROLIMUS MICROSPHERES” (M.A. Med Alliance SA, priority 2022, published 2023).
structure (smiles),measurement,value
"CO[C@H]1C[C@@H]2CC[C@@H](C)[C@@](O)(O2)C(=O)C(=O)N2CCCC[C@H]2C(=O)O[C@H]([C@H](C)C[C@@H]2CC[C@@H](O)[C@H](OC)C2)CC(=O)[C@H](C)/C=C(\C)[C@@H](O)[C@@H](OC)C(=O)[C@H](C)C[C@H](C)/C=C/C=C/C=C/1C [SRL, sirolimus]",octanol/water partition coefficient (log P),4.3
